# Reference: US20240116985A1, “STAPLED PEPTIDES AND METHODS THEREOF” (priority 2020, published 2024)
# Where two headings read alike, the source gives them in different places.
# How the values were obtained:
# [1] = target: T1, full-length beta-Catenin (Uniprot ID P35222) (Homo sapiens, UniProt P35222); assay: Fluorescence polarization IC50 (beta-catenin / 5FAM-TCF4 10-53 competition); type: binding
# T1 construct: 10 nM full-length beta-Catenin (Uniprot ID P35222)
# T1 sequence (P35222 1-781): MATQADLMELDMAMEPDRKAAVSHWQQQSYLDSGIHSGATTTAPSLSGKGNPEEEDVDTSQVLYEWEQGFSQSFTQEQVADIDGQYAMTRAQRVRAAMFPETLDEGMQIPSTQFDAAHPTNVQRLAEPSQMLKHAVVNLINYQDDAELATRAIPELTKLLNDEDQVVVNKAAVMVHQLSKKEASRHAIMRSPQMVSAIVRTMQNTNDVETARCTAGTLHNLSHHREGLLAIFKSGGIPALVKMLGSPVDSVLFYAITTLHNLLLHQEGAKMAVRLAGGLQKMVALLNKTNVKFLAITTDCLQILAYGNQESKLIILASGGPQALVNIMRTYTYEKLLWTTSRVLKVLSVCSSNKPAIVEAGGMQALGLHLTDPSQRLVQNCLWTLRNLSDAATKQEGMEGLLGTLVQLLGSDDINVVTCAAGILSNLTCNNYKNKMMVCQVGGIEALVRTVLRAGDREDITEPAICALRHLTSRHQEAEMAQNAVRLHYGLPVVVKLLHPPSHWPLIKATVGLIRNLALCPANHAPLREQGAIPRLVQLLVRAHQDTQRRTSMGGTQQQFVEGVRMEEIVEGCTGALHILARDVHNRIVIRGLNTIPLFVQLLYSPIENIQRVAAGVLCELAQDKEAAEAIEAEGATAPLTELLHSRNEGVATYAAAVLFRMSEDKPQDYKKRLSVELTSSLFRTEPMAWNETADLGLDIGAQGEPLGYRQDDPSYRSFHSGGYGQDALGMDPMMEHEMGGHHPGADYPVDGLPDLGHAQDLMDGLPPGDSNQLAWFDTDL
# CHI Log D procedure = type: physicochemical; conditions: for chromatographic logD: pH 7.4, CHI Log D
# [2] = fluorescence polarization, read-out: beta-Catenin FP IC50
# [3] = Table E2-1, read-out: beta-Catenin FP IC50
Compound,"IC50 [1, 2]",chromatographic logD (CHI Log D procedure),IC50 ([1]; read-out: FP EC50),CHI Log D (CHI Log D procedure; pH 7.4),"IC50 [1, 3]",further results
"CC(=O)N1CCC[C@]12CC=CCCCC1(CCCC=CCCCCCC[C@@](C)(C(=O)N[C@@H](Cc3cccc(C)c3)C(=O)N[C@@H](Cc3csc4ccccc34)C(=O)N[C@@H](CCC(N)=O)C(N)=O)NC(=O)[C@H](C(C)C)NC(=O)[C@H](Cc3ccccc3)NC(=O)[C@H](C)NC(=O)[C@H](C)NC(=O)[C@H](CCC(=O)O)NC(=O)[C@H](CC(=O)O)NC1=O)NC(=O)[C@H](C)NC(=O)[C@H](CC(=O)O)NC2=O (stereo partly drawn) [I-395, Ac-PL3-Asp-Ala-B5-Asp-Glu-Ala-Ala-Phe-Val-S8-3MeF-BztA-Gln-NH2]",5000 nM,4.07,,,,
"CC(=O)N1CCC[C@]12CC=CCCCC1(CCCC=CCCCOC(=O)N3CC[C@@](C(=O)N[C@@H](Cc4ccsc4)C(=O)N[C@@H](Cc4csc5ccccc45)C(=O)N[C@@H](CCC(N)=O)C(N)=O)(C3)NC(=O)[C@H](CC(N)=O)NC(=O)[C@H](Cc3ccccc3)NC(=O)[C@H](C)NC(=O)[C@H](C)NC(=O)[C@H](CC(=O)O)NC(=O)[C@H](CC(=O)O)NC1=O)NC(=O)[C@H](CC(C)(C)C)NC(=O)[C@H](CC(=O)O)N(C)C2=O (stereo partly drawn) [I-1160, Ac-PL3-NMeD-Npg-B5-Asp-Asp-Ala-Ala-Phe-Asn-PyrS2-3Thi-BztA-Gln-NH2]",575 nM,1.41,,,,
"CC(=O)N1CCC[C@]12CC=CCCCC1(CCCC=CCCCCOC(=O)N3CC[C@@](C(=O)N[C@@H](Cc4ccccc4)C(=O)N[C@@H](Cc4csc5ccccc45)C(=O)N[C@@H](CCC(N)=O)C(N)=O)(C3)NC(=O)[C@H](CC(N)=O)NC(=O)[C@H](Cc3ccccc3)NC(=O)[C@H](C)NC(=O)[C@H](C)NC(=O)[C@H](CCC(=O)O)NC(=O)[C@H](CC(=O)O)NC1=O)NC(=O)[C@H](C)NC(=O)[C@H](CC(=O)O)NC2=O (stereo partly drawn) [I-464, Ac-PL3-Asp-Ala-B5-Asp-Glu-Ala-Ala-Phe-Asn-PyrS3-Phe-BztA-Gln-NH2]",57 nM,,57 nM,1.831,,
"CC(=O)N1CCC[C@]12CC=CCCCC1(CCCC=CCOC(=O)N(C)CC[C@@](C)(C(=O)N[C@@H](Cc3ccccc3)C(=O)N[C@@H](Cc3c[nH]c4ccccc34)C(=O)N[C@@H](CCC(N)=O)C(N)=O)NC(=O)[C@H](C(C)C)NC(=O)[C@H](Cc3ccccc3)NC(=O)[C@H](C)NC(=O)[C@H](C)NC(=O)[C@H](CC(=O)O)NC(=O)[C@H](CC(=O)O)NC1=O)NC(=O)[C@H](C)NC(=O)[C@H](CC(=O)O)NC2=O (stereo partly drawn) [I-55, Ac-PL3-Asp-Ala-B5-Asp-Asp-Ala-Ala-Phe-Val-SdN-Phe-Trp-Gln-NH2]",,1.35,,,5000 nM,
"CC[C@H](C)[C@@H]1NC(=O)[C@H](CC(=O)O)NC(=O)[C@]2(CC=CCCCC3(CCCC=CCCCCCC[C@@](C)(C(=O)N[C@@H](Cc4ccccc4)C(=O)N[C@@H](Cc4csc5ccccc45)C(=O)N[C@@H](CCN)C(N)=O)NC(=O)[C@H](CCC(N)=O)NC(=O)[C@H](Cc4ccccc4)NC(=O)[C@H](C)NC(=O)[C@H](C)NC(=O)[C@H](CC(=O)O)NC(=O)[C@H](CC(=O)O)NC3=O)NC1=O)CCCN2C(C)=O (stereo partly drawn) [I-482, Ac-PL3-Asp-Ile-B5-Asp-Asp-Ala-Ala-Phe-Gln-S8-Phe-BztA-Dab-NH2]",118 nM,2.48,,,,
"CC[C@H](C)[C@@H]1NC(=O)[C@H](CC(=O)O)NC(=O)[C@]2(CC=CCCCC3(CCCC=CCCCCCC[C@@](C)(C(=O)N[C@@H](Cc4ccccc4)C(=O)N[C@@H](Cc4csc5ccccc45)C(=O)N[C@@H](CCC(N)=O)C(N)=O)NC(=O)[C@H](CCC(N)=O)NC(=O)[C@H](Cc4ccccc4)NC(=O)[C@H](C)NC(=O)[C@H](C)NC(=O)[C@H](CN(CC(=O)O)CC(F)(F)F)NC(=O)[C@H](CC(=O)O)NC3=O)NC1=O)CCCN2C(C)=O (stereo partly drawn) [I-610, Ac-PL3-Asp-Ile-B5-Asp-TfeGA-Ala-Ala-Phe-Gln-S8-Phe-BztA-Gln-NH2]",54 nM,,54 nM,2.587,,IC50 ([1]; read-out: bCat FP IC50): 54 nM; logD (CHI Log D procedure; pH 7.4): 2.6
"CC[C@H](C)[C@@H]1NC(=O)[C@H](CC(=O)O)NC(=O)[C@]2(CC=CCCCC3(CCCC=CCCCCCC[C@@](C)(C(=O)N[C@@H](Cc4ccccc4)C(=O)N[C@@H](Cc4csc5ccccc45)C(=O)N[C@@H](CCC(N)=O)C(N)=O)NC(=O)[C@H](CCC(N)=O)NC(=O)[C@H](Cc4ccccc4)NC(=O)[C@H](C)NC(=O)[C@H](CCCCNC(=O)CN=[N+]=[N-])NC(=O)[C@H](CCC(=O)O)NC(=O)[C@H](CC(=O)O)NC3=O)NC1=O)CCCN2C(C)=O (stereo partly drawn) [I-592, Ac-PL3-Asp-Ile-B5-Asp-Glu-[AzAc]Lys-Ala-Phe-Gln-S8-Phe-BztA-Gln-NH2]",,,24 nM,2.414,,
"CC[C@H](C)[C@@H]1NC(=O)C[C@H](C(=O)O)NC(=O)[C@]2(CC=CCCCC3(CCCC=CCCCCCC[C@@](C)(C(=O)N[C@@H](Cc4ccccc4)C(=O)N[C@@H](Cc4csc5ccccc45)C(=O)N[C@@H](CCC(N)=O)C(N)=O)NC(=O)[C@H](CCC(N)=O)NC(=O)[C@H](Cc4ccccc4)NC(=O)[C@H](C)NC(=O)[C@H](C)NC(=O)[C@H](CCC(=O)O)NC(=O)[C@H](CC(=O)O)NC3=O)NC1=O)CCCN2C(C)=O (stereo partly drawn) [I-668, Ac-PL3-isoDAsp-Ile-B5-Asp-Glu-Ala-Ala-Phe-Gln-S8-Phe-BztA-Gln-NH2]",675 nM,,675 nM,2.199,,
"CC(=O)N1CCC[C@]12CC=CCCCC1(CCCC=CCCCCCC[C@@](C)(C(=O)N[C@@H](Cc3ccccc3)C(=O)N[C@@H](Cc3c[nH]c4ccccc34)C(=O)N[C@@H](CCC(N)=O)C(N)=O)NC(=O)[C@H](C(C)C)NC(=O)[C@H](Cc3ccccc3)NC(=O)[C@H](C)NC(=O)[C@H](C)NC(=O)[C@H](CCC(=O)O)NC(=O)[C@H](CC(=O)O)NC1=O)NC(=O)[C@H](C)NC(=O)[C@H](CC(=O)O)NC2=O (stereo partly drawn) [I-123, Ac-PL3-Asp-Ala-B5-Asp-Glu-Ala-Ala-Phe-Val-S8-Phe-Trp-Gln-NH2]",,1.98,,,2110 nM,
"CC[C@H](C)[C@@H]1NC(=O)C[C@H](C(=O)O)NC(=O)[C@]2(CC=CCCCC3(CCCC=CCCCCCC[C@@](C)(C(=O)N[C@@H](Cc4ccccc4)C(=O)N[C@@H](Cc4csc5ccccc45)C(=O)N[C@@H](CCC(N)=O)C(N)=O)NC(=O)[C@H](CCC(N)=O)NC(=O)[C@H](Cc4ccccc4)NC(=O)[C@H](C)NC(=O)[C@H](C)NC(=O)[C@H](CCC(=O)O)NC(=O)[C@H](CC(=O)O)NC3=O)NC1=O)CCCN2C(C)=O (stereo partly drawn) [I-669, Ac-PL3-isoDAsp-Ile-B5-Asp-Glu-Ala-Ala-Phe-Gln-S8-Phe-BztA-Gln-NH2]",451 nM,,451 nM,2.25,,
"CC(=O)N1CCC[C@]12CC=CCCCC1(CCCC=CCCCCCC[C@@](C)(C(=O)N[C@@H](Cc3ccccc3C)C(=O)N[C@@H](Cc3csc4ccccc34)C(=O)N[C@@H](CCC(N)=O)C(N)=O)NC(=O)[C@H](C)NC(=O)[C@H](Cc3ccccc3)NC(=O)[C@H](C)NC(=O)[C@H](C)NC(=O)[C@H](CC(=O)O)NC(=O)[C@H](CC(=O)O)NC1=O)NC(=O)[C@H](C)NC(=O)[C@H](CC(=O)O)NC2=O (stereo partly drawn) [I-367, Ac-PL3-Asp-Ala-B5-Asp-Asp-Ala-Ala-Phe-Ala-S8-2MeF-BztA-Gln-NH2]",,2.15,,,177 nM,
"CC(=O)N1CCC[C@]12CC=CCCCC1(CCCC=CCCCCCC[C@@](C)(C(=O)N[C@@H](Cc3ccccc3)C(=O)N[C@@H](Cc3c[nH]c4ccccc34)C(=O)N[C@@H](CCC(N)=O)C(N)=O)NC(=O)[C@H](C(C)C)NC(=O)[C@H](Cc3cccc(Cl)c3)NC(=O)[C@H](C)NC(=O)[C@H](C)NC(=O)[C@H](CC(=O)O)NC(=O)[C@H](CC(=O)O)NC1=O)NC(=O)[C@H](C)NC(=O)[C@H](CC(=O)O)NC2=O (stereo partly drawn) [I-307, Ac-PL3-Asp-Ala-B5-Asp-Asp-Ala-Ala-3C1F-Val-S8-Phe-Trp-Gln-NH2]",,,,2.055,4200 nM,"IC50 ([1]; fluorescence polarization, beta-catenin, read-out: FP EC50): 4200 nM"
"CC[C@H](C)[C@H](NC(=O)[C@H](CC(=O)O)NC(=O)C(C)(C)NC(C)=O)C(=O)N[C@]1(C)CCN(C)C(=O)OCC=CCCCCC[C@@](C)(C(=O)N[C@@H](Cc2ccccc2)C(=O)N[C@@H](Cc2c[nH]c3ccccc23)C(N)=O)NC(=O)[C@H](CCC(N)=O)NC(=O)[C@H](Cc2ccccc2)NC(=O)[C@H](C)NC(=O)[C@H](C)NC(=O)[C@H](CCC(=O)O)NC(=O)[C@H](CC(=O)O)NC1=O [I-147, Ac-Aib-Asp-Ile-RdN-Asp-Glu-Ala-Ala-Phe-Gln-S7-Phe-Trp-NH2]",,1.4,,,1640 nM,
"CC(=O)N1CCC[C@]12CC=CCCCC1(CCCC=CCCCOC(=O)N3CC[C@@](C(=O)N[C@@H](Cc4ccsc4)C(=O)N[C@@H](Cc4csc5ccccc45)C(=O)N[C@@H](Cc4c[nH]cn4)C(N)=O)(C3)NC(=O)[C@H](CC(N)=O)NC(=O)[C@H](Cc3ccccc3)NC(=O)[C@H](C)NC(=O)[C@H](C)NC(=O)[C@H](CC(=O)O)NC(=O)[C@H](CC(=O)O)NC1=O)NC(=O)[C@H](CC(C)(C)C)NC(=O)[C@H](CC(=O)O)NC2=O (stereo partly drawn) [I-695, Ac-PL3-Asp-Npg-B5-Asp-Asp-Ala-Ala-Phe-Asn-PyrS2-3Thi-BztA-His-NH2]",5 nM,,,2.117,,
